From article PMC12668304, “A Triple Threat Against Ovarian Cancer: Os(II)‐Pt(IV)‐Ceritinib Conjugates for Photodynamic Therapy, Chemotherapy, and Immunogenic Cell Death Induction” (Angewandte Chemie (International Ed. in English), 2025)
Like-named read-outs stand apart in the source and are kept apart here.

Columns and labels:
[1] = system: MCA205 cells; test: (Photo-)cytotoxicity on 2D cell monolayers, resazurin assay; type: cell-based, mouse; details: for IC50: MCA205, normoxic, 4 h exposure
Protocol: The 2D cytotoxicity and phototoxicity profiles of Os‐Pt‐Cer and controls, were evaluated in a panel of cancerous cell lines, including A2780 (ovarian carcinoma), A549 (non‐small cell lung carcinoma), and MCA205 (murine fibrosarcoma), as well as a non‐cancerous retinal pigment epithelial cell line (RPE‐1). Cells were treated with the compounds (0.003–100 µM) for 4 h, either kept in the dark or irradiated at 670 nm (13.5 J cm^− ^2) (Table S4 and Figure S22) or 740 nm (12.6 J cm^− ^2) and viability was assessed 44 h post‐treatment. To verify robustness, the incubation was extended to 72 h. […]
Human ovarian cancer (A2780) cells and mouse fibrosarcoma cells (MCA205) were cultured in RPMI media. Retinal pigment epithelium (RPE -1) cells were cultured in DMEM/F -12 medium. Lung cancer cells (A549) were cultured in F -12K medium. These cell lines were complemented with 10% of fetal bovine serum, 100 U/mL penicillin -streptomycin mixture, and maintained in a humidified atmosphere […]
(Photo-)cytotoxicity on 2D cell monolayers
The cytotoxicity of the compounds was assessed by measuring cell viability using a resazurin assay.
The cells were seeded in triplicates in 96 well plates with a density of 10 4 cells per well in 100 μL of media. After 24 h, the medium was removed, and the cells were treated with increasing concentrations (0.003 → 100 µM) of the compounds diluted in cell media , achieving a total volume of 100 μL/well.
The cells were incubated with the compound for 4 h (final incubation time 48 h) or 24 h (final incubation time 72 h). After this time, the media was removed and replaced with 100 μL of fresh medium. For the phototoxicity studies, the cells were exposed to light with an Atlas Photonics LUMOS BIO irradiation system. Each well was constantly irradiated at 670 nm (60 min, 13.50 J·cm-2) or 740 nm (60 min, 12.60 J·cm-2). During the irradiation, the temperature of the plate was maintained at 37 °C. The cells were grown in the incubator for an additional 44 or 48 h, respectively. For the determination of the dark cytotoxicity, the cells were not irradiated and after the medium exchange directly incubated for 44 h.
After this time, the medium was replaced with fresh medium containing resazurin (0.2 mg/mL). After […]
4 h of incubation, the conversion of resazurin into resorufin was determined upon excitation at 540 nm and measurement of its emission at 590 nm using a Cytation 5 Imaging Reader from BioTek. The obtained data was analysed with the GraphPad Prism software […]
After 24 h of incubation at 37 °C, 5% CO 2, plates were read using a SpectraMaxM2 Microplate Reader ( λexc = 540 nm; λread = 590 nm). Fluorescence data were normalised, and data were fitted using GraphPad Prism Software, and IC 50 was calculated by non - linear regression. Changes in the size and shape of MCTS were monitored every 24 h using Cytation 5 Imaging Reader from BioTek, objective x4.
Intracellular distribution by confocal fluorescence microscopy
10^4 cells/well (A2780 cells) were seeded in complete medium (RPMI) in µ -slide 8 well (Ibidi) (100 µl/well) and left for 24 h to attach to the bottom. Then, the culture medium was removed , and 100 µl of solution of the corresponding complexes (5 µM) was added. The complexes were incubated with the cells for 4 hours. Thereafter, the medium was removed and replaced by RPMI without phenol red , and Hoechst and MitoTracker Green were added at a final concentration of 1 µg/mL. They were incubated with the cells for 30 min in the dark at 37 °C. Images were collected in a sequential mode in a Leica TCS SP8 confocal microscope with a 60x oil immers ion objective, a line average of 4, and a format of […]
(MTG)→ 500 -550nm, and 488 nm (complexes)→ 680 -730 nm. The confocal pinhole was 1 Airy unit.
Images were analysed with LAS X Flim FCS software.
Intracellular distribution by ICP -MS

[2] = system: A2780 MCTSs; test: Growth kinetics (diameter) of spheroids; type: cell-based, human; details: 0.5 µM, irradiated 1 h at 740 nm, after 72 h
Protocol: A2780 spheroids (ca. 500 µm in diameter) were treated with increasing concentrations of the compounds and after 24 h of incubation, the medium was replaced with fresh medium, and the cells were either kept in the dark or irradiated for 1 h at 740 nm. Images of the spheroids were taken every 24 h for 3 days.
Figure 4 Changes in the growth kinetics of A2780 MCTSs treated with complex Os‐Pt‐Cer, Os, ceritinib, oxaliplatin, and cisplatin at 0.5 and 5 µM for irradiated and dark groups, respectively, and non‐treated as control. Images were collected on 0, 4, 24, and 72 h after the creation of the groups. Scale bar: 1000 µm.
4 h of incubation, the conversion of resazurin into resorufin was determined upon excitation at 540 nm and measurement of its emission at 590 nm using a Cytation 5 Imaging Reader from BioTek. The obtained data was analysed with the GraphPad Prism software
MCTS were cultured using ultra-low attachment 96 wells plates from Corning (Fisher Scientific 15329740). A2780 cells were seeded at a density of 1,500 cells per well in 100 μL of RPMI. Within 2-3 days, MCTSs have approximately 500 μm of diameter. The formation as well as integrity and diameter of the MCTSs were monitored by microscopy.
(Photo-)cytotoxicity on 3D multicellular tumor spheroids (MCTS) […]
Intracellular distribution by confocal fluorescence microscopy […]
Images were analysed with LAS X Flim FCS software. […]

[3] = Mus musculus, MCA-205, dark, total 48 h incubation, read-out: IC50 Dark

Structure (SMILES)	PI (IC50 dark/IC50 irradiation 740 nm) ([1]; MCA205)	IC50 ([1]; Mus musculus, MCA-205, 740 nm (60 min, 12.60 J·cm^−2), total 48 h, read-out: IC50 Irrad. 740 nm)	IC50 [1, 3]	change of MCTS diameter [2]	IC50 ([1]; dark, total 48 h incubation, read-out: IC50 Dark)
C=Cc1c(C)c2cc3nc(c(CC(=O)O)c4[nH]c(cc5nc(cc1[nH]2)C(C)=C5CC)c(C)c4C(=O)O)[C@@H](CCC(=O)O)[C@@H]3C [Ce6, Chlorin e6]	≥53	1880 ± 200 nM	> 100000 nM	–	–
Cc1cc(Nc2ncc(Cl)c(Nc3ccccc3S(=O)(=O)C(C)C)n2)c(OC(C)C)cc1C1CCNCC1 [Ceritinib]	–	–	6970 ± 700 nM	increased with time	–
O=C1[O][Pt]2([NH][C@@H]3CCCC[C@H]3[NH]2)[O]C1=O [Oxaliplatin]	–	–	–	increased with time	800 ± 90 nM
